Laboratory results reported in US11891601B2, “Method to enhance the transcription regulation of SUPT4H on genes containing repetitive nucleotide sequences” (National Yang-Ming University, priority 2018, dated 2024).

Tested on: R-loops on (CAG)n-eGFP in ST14A cells
Assay: RNA/DNA immunoprecipitation (DIP) assay of R-loops in ST14A cells expressing Q7-GFP or Q81-GFP
Format: cell-based, rat
Details: ST14A tet cells, tropolone 60 μM for 12 hours
Procedure: Yeast cells were collected after culturing in 2% galactose-containing medium for 12 hours, and then grinded by glass beads in the presence of 300 μl extraction buffer (10 mM Tris-HCl pH 8.0, 10 mM EDTA, 200 mM NaCl, 1% SDS, 2% Triton X-100, 25 units RNase inhibitor). The nucleic acid mixture was subjected to sonication (Bioruptor UCD-200) and extracted by phenol (pH 8.0). Purified chromatin DNA and RNA, with or without RNase H treatment for 90 minutes, was precipitated by monoclonal antibody S9.6 bound to protein G agarose beads. […] The RNA/DNA hybrid (R-loop) signal was analyzed by qPCR and the Quantitative-Comparative CT (MCT) program. In yeast experiments, a pair of primers (Primer-B F and Primer-B R) were used to quantify R-loop signal in the vicinity of CAG repeats and the primer set AMP was used as a control. […] For Hdh^Q7/Q7 and Hdh^Q111/Q111, mouse HTT DIP primer set was used to quantify R-loop signal of the CAG repeating region and Tubal a DIP primer set was included as a control. […]
Please refer to FIG. 6. […] A relative high signal of R-loops was detected in (CAG)7-eGFP, but this signal is not increased by tropolone. […] RNA was extracted and analyzed by real-time RT-qPCR to measure the quantity of (CAG)n-GFP, SUPT4H and snRNA U6. […]

Compound: O=c1cccccc1O [Tropolone]
- R-loop signal by DIP assay, (CAG)8i-eGFP (long repeat): significantly increased
- R-loop signal by DIP assay, (CAG)7-eGFP (short repeat (CAG)7-eGFP): not increased
